The values below are quoted from earlier work in paper PMC7732027 (Bioorganic & medicinal chemistry letters, 2019).

Each structure is given as a SMILES string.

The test system of this data set is A/H3N2 viruses with PA I38T/F substitutions. To be noted: cited from earlier work.

For `COC(=O)OCOc1c2n(ccc1=O)N([C@@H]1c3ccccc3SCc3c1ccc(F)c3F)[C@@H]1COCCN1C2=O` [BXM, baloxavir marboxil], the “reduction in BXM susceptibility” value is reported as “more than 10 fold”.
